One compound from patent US20230201292A1, “HERBAL FORMULATION FOR THE PREVENTION AND MANAGEMENT OF TYPE-2 DIABETES MELLITUS AND ASSOCIATED MICROVASCULAR COMPLICATIONS” (priority 2021, published 2023) can be followed below.

The assay relates to Streptozotocin (STZ) treated diabetic rats. Nature of the assay: Streptozotocin (STZ) treated diabetic rats: blood glucose, hs CRP, IL-6, adiponectin. Format: in vivo. The settings on record: for Blood glucose level: STZ (65 mg/kg) diabetic rats; for Adiponectin / IL-6 / hs CRP: STZ diabetic rats.

For `C[C@H]1O[C@H](O[C@H]2[C@H](O)[C@@H](O)[C@@H](O[C@H]3[C@H](O)[C@@H](O)C(O)O[C@@H]3CO)O[C@@H]2CO)[C@H](O)[C@@H](O)[C@@H]1N[C@H]1C=C(CO)[C@@H](O)[C@H](O)[C@H]1O` (stereo partly drawn) [Acarbose], for the setting “7th Days”, the Blood glucose level was found to be 228.33 ± 19.44 mg/day, the Adiponectin is 8.87 ± 2.10 µg/mL, the IL-6 is 2.87 ± 0.25 pg/mL and the “hs CRP” value is 6.78 ± 1.52 mg/L. Moreover, where the note is “14th Days”, the Blood glucose level was 192.74 ± 15.18 mg/day, the Adiponectin worked out at 9.65 ± 1.63 µg/mL, the IL-6 turned out to be 2.49 ± 0.32 pg/mL and the “hs CRP” value is 5.43 ± 0.75 mg/L. For the same compound, under “28th Days”, the Blood glucose level was 157.51 ± 10.24 mg/day, the Adiponectin was 10.23 ± 2.14 µg/mL, the IL-6 was found to be 2.23 ± 0.26 pg/mL and the “hs CRP” value is 4.97 ± 0.87 mg/L.
